The source of these data is PubChem BioAssay (NCI).

Common to all, as to assay: growth of human tumour cells (NCI), 48 h
Experiment [1] relates to CCRF-CEM leukemia.
Experiment [2] deals with COLO 205 colon.
Experiment [3] has as its system HCC-2998 colon.
In experiment [4] the test system is HCT-116 colon.
Experiment [5] concerns HL-60(TB) leukemia.
The test system of experiment [6] is HT29 colon.
Experiment [7] relates to K-562 leukemia.
In experiment [8] the test system is MOLT-4 leukemia.
In experiment [9] the test system is NCI-H23 lung.
Experiment [10] has as its system NCI/ADR-RES ovarian.
Experiment [11] relates to OVCAR-3 ovarian.
In experiment [12] the test system is OVCAR-8 ovarian.
For experiment [13], the system named is SF-295 CNS.
The test system of experiment [14] is SK-MEL-2 melanoma.
Experiment [15] relates to SK-MEL-28 melanoma.
In experiment [16] the test system is SK-OV-3 ovarian.
Experiment [17] relates to SN12C renal.
In experiment [18] the test system is SNB-19 CNS.
Experiment [19] has as its system SW-620 colon.
Experiment [20] concerns RXF 393 renal.

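96-well plates; 48 h exposure; 5 concentrations. Endpoints by linear interpolation between flanking doses. Not reached: highest tested concentration assigned. At the TGI there is no net growth.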 Bounds are passed on as bounds.

For `CCCCCCCNC(P(=O)(O)O)P(=O)(O)O`, the TGI in experiment [1], in experiment [2], in experiment [3], in experiment [4], in [5] and in experiment [6] was above 100 µM throughout. The TGI in experiment [7], in experiment [8], in [9], in experiment [10], in [11] and in [12] was above 100 µM throughout. The TGI in experiment [13], in experiment [14], in experiment [15], in [16], in [17] and in experiment [18] was above 100 µM each time. In experiment [19], this compound came in with a TGI above 100 µM.
Consider `O=C(CC(C(=O)c1cccs1)c1cccs1)c1ccccc1Cl` (configuration not stated), for which the TGI in [1], in experiment [2], in [3], in experiment [4], in experiment [5] and in experiment [6] was above 100 µM throughout. Besides, the TGI in experiment [7], in experiment [8], in [9], in [10], in [12] and in experiment [13] was above 100 µM throughout. In addition, the TGI in experiment [14], in [15], in experiment [16], in experiment [17], in [18] and in [19] was above 100 µM in each case.
In the case of `O=C1CCCC(=O)N1n1c(Cc2ccccc2)n[nH]c1=O`, the TGI in [1], in [2], in [4], in experiment [5], in experiment [6] and in [7] was above 100 µM each time. Besides, the TGI in [8], in [9], in experiment [10], in experiment [11], in experiment [12] and in [20] was above 100 µM in each case. Moreover, the TGI in experiment [13], in experiment [14], in experiment [15], in [16], in experiment [17] and in experiment [19] was above 100 µM throughout.
`COC(=O)c1ccc(NCc2c(O)ccc(O)c2Br)cc1Cl`: the TGI in experiment [1] is above 100 µM; in experiment [2], 33.4 µM; in [3] it was 39.4 µM; in experiment [4] it was 33.3 µM; in [5], 4.52 µM; in experiment [6], 40.2 µM. Also, the TGI in [8] was 40.9 µM; in experiment [9], 32.9 µM; in experiment [10], 44.9 µM; in experiment [11], 20.9 µM; in experiment [12], 30 µM; in experiment [13] it was 35 µM. Further, the TGI is 40.8 µM in [14]; 30.7 µM in experiment [15]; above 100 µM in [16]; 25.7 µM in experiment [17]; above 100 µM in experiment [18]; 25 µM in [19].
As for `O=c1oc2ccccc2c(O)c1/C=N/C(=S)NCc1ccccc1`, the TGI in [2], in experiment [3], in [4], in [5], in experiment [6] and in experiment [8] was above 100 µM in each case. Besides, the TGI in experiment [9], in experiment [10], in experiment [11], in [12], in experiment [13] and in experiment [14] was above 100 µM each time. Besides, the TGI in [15], in experiment [16], in [17], in [18] and in [19] was above 100 µM in each case.
For `NNC1=N/C(=C\c2ccco2)C(=O)N1`, the TGI in experiment [2], in experiment [3], in experiment [4], in [5], in [6] and in experiment [7] was above 100 µM in each case. The TGI in experiment [8], in experiment [9], in experiment [10], in experiment [11], in experiment [12] and in [13] was above 100 µM in each case. For the same compound, the TGI in [14], in [15], in experiment [16], in experiment [17], in experiment [18] and in experiment [19] was above 100 µM throughout.
Consider `CC(C)(C)CNC(=O)NCn1cc(-c2ccccc2)nn1`, for which the TGI in experiment [1], in experiment [2], in experiment [3], in experiment [4], in [5] and in experiment [6] was above 100 µM throughout. The TGI in experiment [7], in experiment [8], in [9], in experiment [10], in experiment [12] and in [13] was above 100 µM in each case. The TGI in experiment [14], in experiment [15], in experiment [17], in experiment [18] and in experiment [19] was above 100 µM throughout.
Consider `Cc1ccc(C2SCC(=O)N2c2ccc(-c3ccc(-n4c(-c5ccccc5)nc5ccccc5c4=O)cc3)cc2)cc1` (configuration not stated), for which the TGI in experiment [1], in experiment [2], in experiment [3], in experiment [5], in experiment [6] and in [7] was above 100 µM in each case. The TGI in experiment [8], in [9], in experiment [10], in [11], in experiment [12] and in experiment [13] was above 100 µM in each case. The TGI in experiment [14], in experiment [15], in [16], in experiment [17], in [18] and in experiment [19] was above 100 µM each time.
`CCOC(=O)C1C(c2ccc(O)c(OC)c2)c2c([nH][nH]c2=O)CC1(C)O` (configuration not stated): the TGI in [1], in experiment [2], in experiment [3], in experiment [4], in experiment [5] and in [6] was above 100 µM throughout. Besides, the TGI in experiment [8], in experiment [9], in [10], in experiment [11], in experiment [12] and in [13] was above 100 µM in each case. Further, the TGI in experiment [14], in experiment [15], in [17], in experiment [18] and in experiment [19] was above 100 µM in each case.
With `CSc1cc(Br)ccc1-n1c(C(=O)c2ccccc2)c(SC)n(-c2ccccc2)c1=O`, the TGI in [2], in experiment [3], in [4], in experiment [6], in [7] and in experiment [8] was above 100 µM each time. In addition, the TGI in experiment [9], in [10], in experiment [11], in experiment [12], in experiment [13] and in [15] was above 100 µM throughout. Moreover, the TGI in experiment [16], in experiment [17], in experiment [18] and in experiment [19] was above 100 µM in each case.
Consider `O=c1c2ccccc2nc2n1C(c1ccc([N+](=O)[O-])cc1)C2(c1ccccc1)c1ccccc1` (configuration not stated), for which the TGI in experiment [1], in [2], in [4], in experiment [5], in experiment [6] and in experiment [8] was above 100 µM in each case. Moreover, the TGI in experiment [9], in [10], in [11], in experiment [12], in experiment [20] and in [13] was above 100 µM in each case. For the same compound, the TGI in [14], in experiment [15], in experiment [16], in experiment [17], in experiment [18] and in [19] was above 100 µM each time.
Consider `O=C(O)CCNC(=O)c1cc(N(CCBr)CCBr)c([N+](=O)[O-])cc1[N+](=O)[O-]`, for which the TGI in experiment [1], in experiment [2], in experiment [3], in experiment [4], in experiment [5] and in experiment [6] was above 100 µM throughout. Also, the TGI in experiment [7], in experiment [8], in experiment [9], in experiment [10], in experiment [11] and in experiment [12] was above 100 µM each time. For the same compound, the TGI in experiment [13], in [14], in experiment [15], in experiment [16], in experiment [17] and in [18] was above 100 µM throughout. Besides, the TGI in experiment [19] is above 100 µM.
Consider `O=C(OC[C@H]1C[C@H]2C(=O)CCC[C@H]2O1)c1ccccc1`, for which the TGI in [1], in experiment [2], in [4], in experiment [5], in experiment [6] and in [7] was above 100 µM each time. For the same compound, the TGI in [8], in [9], in experiment [10], in experiment [11], in experiment [12] and in experiment [13] was above 100 µM throughout. The TGI in [14], in [15], in experiment [16], in [17], in experiment [18] and in [19] was above 100 µM throughout.
`CCCCc1ccc(-n2sc3ncc([N+](=O)[O-])cc3c2=O)cc1`: the TGI turned out to be 32.4 µM in [1]; 32.3 µM in experiment [2]; 27.6 µM in experiment [3]; 21 µM in experiment [4]; 38 µM in experiment [5]; 26.7 µM in experiment [6]. Further, the TGI worked out at 53.7 µM in experiment [8]; 24.1 µM in experiment [9]; 34.4 µM in [10]; 46.1 µM in experiment [11]; 61 µM in experiment [12]; 27 µM in experiment [13]. Besides, the TGI in [14] was 7.43 µM; in [15], 50.7 µM; in [16], above 100 µM; in experiment [17], 32.7 µM; in experiment [18], 48.6 µM; in experiment [19], 35.9 µM.
`O=C(COc1ccc(OCC(=O)NNC2=NC(c3cc(F)c(Cl)cc3Cl)CS2)c(Cl)c1)NNC1=NC(c2cc(F)c(Cl)cc2Cl)CS1` (configuration not stated): the TGI in [1] was above 100 µM; in experiment [2], above 100 µM; in [4], above 100 µM; in experiment [5], above 100 µM; in [6], 59.3 µM; in experiment [7], above 100 µM. The TGI in experiment [8] was above 100 µM; in [9], 50.1 µM; in experiment [10] it was above 100 µM; in experiment [12], 64.5 µM; in experiment [20] it was 60.9 µM; in experiment [13], 71.6 µM. Also, the TGI in experiment [14] is above 100 µM; in experiment [15] it was 86.9 µM; in experiment [16], above 100 µM; in experiment [17] it was 43.8 µM; in [18], above 100 µM; in [19] it was above 100 µM.
